Series [1] is described as follows: Chemical stability test (HPLC purity). Particulars: for change of purity (in words) / 1 month Other peaks (%) / 1 month Parent peak (%) / chemical stability compared to known compounds: 1 month at 40±2° C.; for change of purity (in words) / 1 month Other peaks (%) / 1 month Parent peak (%) / change of purity (%) / chemical stability compared to known compounds: 75±5% relative humidity; for 1 month Other peaks (%) / 1 month Parent peak (%) / Initial Other peaks (%) / Initial Parent peak (%): HPLC; for 1 month Other peaks (%) / 1 month Parent peak (%): air-tight vessel; for change of purity (%): initial vs 1 month at 40±2° C.
Experimental: (§4) Each compound of the present invention was kept in an air-tight vessel for 1 month at 40±2° C. and 75±5% of relative humidity. Thereafter the HPLC purity test was executed.
(§5) 25 mL of the solution was precisely taken, and poured into 100 mL volumetric flask. Acetonitrile/20 mM ammonium acetate aqueous solution (50:50) was added thereto to be the total volume of 100 ml. The solution was filtrated, and the filtrate was used as a test liquid.
(§6) (2) Operational Condition of Instrument. • Column: Kromasil®C18 (UG 100 Å, 5 μm, 4.6 mm Φ×250 mm) • Column temperature: 30° C. • Mobil phase: 20 mM ammonium acetate (pH 4.2) buffer:acetonitrile (55:45) • Injection volume: 20 μL • Flow rate: 1.2 mL/min • Detector: UV light-absorption Spectrophotometer (detection wavelength: 306 nm)

The subject of series [2] is L5178Y lymphoma. In words: Inhibiting activity on cell proliferation, MTT analysis (L5178Y). The series is classed as cell-based, murine. Particulars: L5178Y lymphoma cells, 3 days with drug. Here is the method:
(§1) In order to compare the safety index (SI) of CPAE (calf pulmonary artery endothelial cell) with that of HUVEC (human umbilical vein endothelial cell), L5178Y lymphoma that was isolated from murine thymus was used. The safety index was defined as IC50 ratio of L5178Y against CPAE (IC50L5178Y/IC50CPAE). All cell lines, which had been kept in liquid nitrogen tank, were used after being thawed and subcultured 2˜3 times in T-flask. CPAE, HUVEC and L5178Y were cultured in MEM culture medium (20% FBS, 50˜100 μg/ml ECGS, 0.15% baking soda, 0.05 mg/ml gentamicin), M199 culture medium (20% FBS, 0.22% baking soda, 100 μg/ml heparin, 3 ng/ml bFGF, 0.05 mg/ml gentamicin) and RPMI 1640 culture medium (10% FBS, 0.2% baking soda, 0.05 mg/ml gentamicin), respectively, under the condition of 37° C. and 5% CO2.
(§2) The drug was prepared by being gradationally diluted to two or ten times by using PBS, 20 μl of the solution was added to each well of 96 well plate in triplicate. The cell, which is being incubated, was treated with trypsin to give cell suspension. The number of cell thereafter was counted. And 180 μl of the solution was inoculated to each well and cultured.
The tumor cell was cultured with drugs for 3 days and then 50 μl of MTT (3-(4,5-dimethylthiazole-2-yl)-2,5-diphenyl tetrazolium bromide, Sigma Chemical Co.) solution (2.5 mg/ml in PBS) was added thereto. And it was further cultured for 4 hours at 37° C. Culture medium was removed carefully. And after dissolving formazan crystal by adding 150 μl of DMSO, the absorbance at 570 nm was determined.

The subject of series [3] is CPAE (calf pulmonary artery endothelial cell). In words: Inhibiting activity on cell proliferation, SRB analysis (CPAE). The series is classed as cell-based. Particulars: for IC50: CPAE cells, 3 days with drug, SRB, read-out: IC50 (nM) CAPE; for effect compared to CKD-731 against CPAE: relative to CKD-731; for effect compared to CKD-731 against SI: safety/selectivity index relative to CKD-731; for Selectivity Index (L5178Y/CAPE): IC50 L5178Y / IC50 CPAE. How it is done:
as §1, §2
(§3) The cell was cultured with drugs for 3 days and then 50 μl of 50% TCA was added thereto (final concentration 10%). Subsequently the cell was fixed by being left alone at 4° C. for 1 hour. The well was washed 4 times by distilled water and then dried. After that 100 μl of SRB (Sulforhodamine B, Sigma Chemical Co.) solution (0.4% w/v in 1% acetic acid) was added thereto and then it was left alone at ordinary temperature for 30 minutes. Thereafter the well was washed 4 times by 1% acetic acid and dried. And then after adding 200 μl of 10 mM tris buffer, the absorbance at 570 nm was measured by automatic microplate reader (Model: Elx 808, Bio-Tek Instrument, INC). The viability was calculated from the ratio of the absorbance of the control to which drugs were not added and the well to which drugs were added.

Series [4] is described as follows: Solubility test. The series is classed as physicochemical. Particulars: ordinary temperature. How it is done:
To a constant amount (400 mg) of each compounds of present invention, a constant amount of demineralized water, methanol and ethanol were added separately, and the solution was stirred at ordinary temperature.

For series [5], the system named is SD rats. Briefly: Acute oral toxicity test on rats. Particulars: single oral dose 1 g/kg/15 ml in 0.5% methylcellulose. The series is classed as in vivo. Here is the method: The acute toxicity test was carried out using 6-weeks-old SD rats. Each Example of O-(4-(2-hydroxyethoxy)cinnamoyl)fumagillol (a compound of the Example 1), O-(3,5-dimethoxy-4-(2-hydroxyethoxy)cinnamoyl)fumagillol (a compound of the Example 2) and O-(4-(2-hydroxyethoxy)-3-methoxycinnamoyl)fumagillol (a compound of the Example 3) was suspended in 0.5% methylcellulose, and then orally administrated once to 5 of each male and each female rats per group by dosage of 1 g/kg/15 ml. After administrating the test substances, the death of the rats, clinic symptoms and the change of weight were observed. And also hematologic and blood biochemical tests were executed, the abnormality of abdominal and thoracic organs was observed by autopsy with the naked eye.

The conditions of series [6]: 1 month.
Experimental: as §4, §5, §6
Series [7] has as its system HUVEC (human umbilical vein endothelial cell). In words: Inhibiting activity on cell proliferation, SRB analysis (HUVEC). The series is classed as cell-based. Particulars: HUVEC cells, 3 days with drug. Here is the method: as §1, §2, §3
The mark [8] stands for this setting: Bos taurus, Endothelial cell, 72 h.

Read-outs that look alike come from different tables or passages of the source.

`COc1cc(/C=C/C(=O)O[C@@H]2CC[C@]3(CO3)[C@@H]([C@@]3(C)O[C@@H]3CC=C(C)C)[C@@H]2OC)ccc1OCCO` [Example 3, O-(4-(2-hydroxyethoxy)-3-methoxycinnamoyl)fumagillol]: in series [1], the “change of purity (in words)” value is given as “hardly showed a change of purity”, the “1 month Other peaks (%)” value amounted to 1.6%, the “1 month Parent peak (%)” value came out at 98.4% and the “Initial Other peaks (%)” value stood at 1.5%. Moreover, in series [1], the “Initial Parent peak (%)” value is 98.5% and the “change of purity (%)” value stood at 0.1%. Also, the IC50 in series [2] (Mus musculus, 72 h) amounted to 56400 nM. The IC50 in series [3] (setting [8]) was determined as 0.0045 nM. In addition, in series [3], the “effect compared to CKD-731 against CPAE” value is “equivalent or not smaller than twice effect of CKD-731” and the “effect compared to CKD-731 against SI” value is given as “equivalent or more effect of CKD-731”. Also, in series [4], the “The amount of solvent to dissolve 1 g of the compounds (ml), demineralized water” value (shortened to “The amount of solvent … demineralized water”) amounted to 142 mL; the “The amount of solvent to dissolve 1 g of the compounds (ml), ethanol” value (“The amount of solvent … (ml), ethanol” for short) came out at 61 mL; the “The amount of solvent to dissolve 1 g of the compounds (ml), methanol” value (“The amount of solvent to dissolve 1 g … methanol” below) turned out to be 45 mL. Further, the “clinic symptoms, death and change by toxicity (autopsy)” value in series [5] is “no notable clinic symptoms, death and change by toxicity”. Also, the “chemical stability compared to known compounds” value in series [6] was “more excellent chemical stability than TNP-470, CKD-732 and CKD-731”.
Turning to `COc1cc(/C=C/C(=O)O[C@@H]2CC[C@]3(CO3)[C@@H]([C@@]3(C)O[C@@H]3CC=C(C)C)[C@@H]2OC)cc(OC)c1OCCO` [Example 2, O-(3,5-dimethoxy-4-(2-hydroxyethoxy)cinnamoyl)fumagillol], in series [1], the “change of purity (in words)” value is “hardly showed a change of purity”, the “1 month Other peaks (%)” value was 0.9%, the “1 month Parent peak (%)” value was found to be 99.1% and the “Initial Other peaks (%)” value was determined as 0.9%. Also, in series [1], the “Initial Parent peak (%)” value amounted to 99.1% and the “change of purity (%)” value was determined as 0%. In series [2] (Mus musculus, 72 h), this compound showed an IC50 of 25000 nM. Also, the IC50 in series [3] (setting [8]) was determined as 0.0025 nM. Besides, in series [3], the “Selectivity Index (L5178Y/CAPE)” value is 1.00 × 10^7, the “effect compared to CKD-731 against CPAE” value is given as “equivalent or not smaller than twice effect of CKD-731” and the “effect compared to CKD-731 against SI” value is “equivalent or more effect of CKD-731”. In series [4], the “The amount of solvent … demineralized water” value was determined as 146 mL; the “The amount of solvent … (ml), ethanol” value is 59 mL; the “The amount of solvent to dissolve 1 g … methanol” value amounted to 37 mL. In series [5], the “clinic symptoms, death and change by toxicity (autopsy)” value was “no notable clinic symptoms, death and change by toxicity”. Also, in series [6], the “chemical stability compared to known compounds” value is “more excellent chemical stability than TNP-470, CKD-732 and CKD-731”.
Take `CO[C@@H]1[C@H](OC(=O)/C=C/c2ccc(NCCO)cc2)CC[C@]2(CO2)[C@H]1[C@@]1(C)O[C@@H]1CC=C(C)C` [Example 5, O-(4-(2-hydroxyethylamino)cinnamoyl)fumagillol]: in series [1], the “chemical stability compared to known compounds” value is “more excellent chemical stability than TNP-470, CKD-732 and CKD-731”; the “1 month Other peaks (%)” value is on record as 1.5%; the “1 month Parent peak (%)” value is reported as 98.5%; the “Initial Other peaks (%)” value is on record as 0.8%. In series [1], the “Initial Parent peak (%)” value came to 99.2% and the “change of purity (%)” value is on record as 0.7%. Besides, in series [2] (Mus musculus, 72 h), the IC50 turned out to be 7110 nM. In addition, in series [3] (setting [8]), the IC50 was 0.0061 nM. The “Selectivity Index (L5178Y/CAPE)” value in series [3] is listed as 1.16 × 10^6. Moreover, in series [4], the “The amount of solvent … demineralized water” value was 132 mL; the “The amount of solvent … (ml), ethanol” value stood at 60 mL; the “The amount of solvent to dissolve 1 g … methanol” value is 39 mL. The same compound yielded a half-maximal inhibitory concentration (IC50) in series [7] (Homo sapiens, 72 h) of 0.00104 nM.
Regarding `CO[C@@H]1[C@H](OC(=O)NC(=O)CCl)CC[C@]2(CO2)[C@H]1[C@@]1(C)O[C@@H]1CC=C(C)C` [TNP-470, O-chloroacetylcarbamoylfumagillol, reference compound], in series [1], the “1 month Other peaks (%)” value turned out to be 3.5%, the “1 month Parent peak (%)” value amounted to 96.5%, the “Initial Other peaks (%)” value was determined as 1.3% and the “Initial Parent peak (%)” value is reported as 98.7%. Moreover, the “change of purity (%)” value in series [1] was determined as 2.2%. The compound further yielded an IC50 in series [2] (Mus musculus, 72 h) of 4300 nM. In addition, in series [3] (setting [8]), the IC50 is 0.449 nM. For the same compound, the “Selectivity Index (L5178Y/CAPE)” value in series [3] is recorded as 3.85 × 10^3. Further, in series [4], the “The amount of solvent … demineralized water” value is 876 mL; the “The amount of solvent … (ml), ethanol” value is 250 mL; the “The amount of solvent to dissolve 1 g … methanol” value was found to be 208 mL. The compound further showed an IC50 in series [7] (Homo sapiens, 72 h) of 0.00896 nM.
Take `CO[C@@H]1[C@H](OC(=O)/C=C/c2cccc(NCCO)c2)CC[C@]2(CO2)[C@H]1[C@@]1(C)O[C@@H]1CC=C(C)C` [Example 6, O-(3-(2-hydroxyethylamino)cinnamoyl)fumagillol]: in series [1], the “chemical stability compared to known compounds” value was “more excellent chemical stability than TNP-470, CKD-732 and CKD-731”; the “1 month Other peaks (%)” value stood at 1.9%; the “1 month Parent peak (%)” value was 98.1%; the “Initial Other peaks (%)” value came out at 1.4%. For the same compound, in series [1], the “Initial Parent peak (%)” value was found to be 98.6% and the “change of purity (%)” value is 0.5%. In series [2] (Mus musculus, 72 h), this compound gave an IC50 of 27700 nM. Also, the IC50 in series [3] (setting [8]) was 0.0071 nM. For the same compound, the “Selectivity Index (L5178Y/CAPE)” value in series [3] was 3.88 × 10^6. For the same compound, in series [4], the “The amount of solvent … demineralized water” value came out at 130 mL; the “The amount of solvent … (ml), ethanol” value is 58 mL; the “The amount of solvent to dissolve 1 g … methanol” value was 31 mL. The compound further registered an IC50 in series [7] (Homo sapiens, 72 h) of 0.00222 nM.
On to `CO[C@@H]1[C@H](OC(=O)C=Cc2ccc(OCCN(C)C)cc2)CC[C@]2(CO2)[C@H]1[C@@]1(C)O[C@@H]1CC=C(C)C` [CKD-732, O-(4-dimethylaminoethoxycinnamoyl)fumagillol, reference compound], for which, in series [1], the “1 month Other peaks (%)” value was found to be 4.6%, the “1 month Parent peak (%)” value is 95.4%, the “Initial Other peaks (%)” value is on record as 0.8% and the “Initial Parent peak (%)” value is reported as 99.2%. For the same compound, in series [1], the “change of purity (%)” value is reported as 3.8%. Moreover, the IC50 in series [2] came out at 8720 nM. Also, in series [3], the IC50 came out at 0.648 nM and the “Selectivity Index (L5178Y/CAPE)” value was 1.35 × 10^4. Further, in series [4], the “The amount of solvent … demineralized water” value was 1100 mL; the “The amount of solvent … (ml), ethanol” value amounted to 219 mL; the “The amount of solvent to dissolve 1 g … methanol” value is 197 mL. Further, the half-maximal inhibitory concentration (IC50) in series [7] is 0.0066 nM.

For orientation: IC50 means the point on the concentration scale where inhibition reaches its midpoint.

The values are drawn from US20100056623A1, “FUMAGILLOL DERIVATIVES OR METHOD FOR PREPARATION OF FUMAGILLOL DERIVATIVES, AND PHARMACEUTICAL COMPOSITIONS COMPRISING THE SAME” (CHONG KUN DANG PHARMACEUTICAL CORP., priority 2005, published 2010).
